Assay results as given in patent publication US20010049450A1 (priority 2000, published 2001).
Where a name gives a salt, the structure may show the parent alone.

Key:
[1] = Crystal particle size distribution and average particle size (SHIMADZU SALD1100, medium diisopropyl ether); type: physicochemical; conditions: for average particle size: average diameter upon conversion of particle volume into sphere; for average particle size / crystal particle size distribution: not less than 10 μm and less than 20 μm / crystal particle size distribution: not less than 20 μm and less than 40 μm / crystal particle size distribution: less than 5 μm / crystal particle size distribution: not less than 40 μm: hydrobromide; for crystal particle size distribution: not less than 10 μm and less than 20 μm: fraction of crystals with 10 μm ≦ D < 20 μm; for crystal particle size distribution: not less than 20 μm and less than 40 μm: fraction of crystals with 20 μm ≦ D < 40 μm; for crystal particle size distribution: less than 5 μm: fraction of crystals with D < 5 μm; for crystal particle size distribution: not less than 40 μm: fraction of crystals with D ≧ 40 μm
Protocol: The average particle size in the present invention is an average diameter upon conversion of the volume of the crystal particles into sphere. The powder X-ray crystal diffraction and average particle size were measured in the following Reference Example, Examples and Comparative Example, according to the following methods. Average particle size: SHIMADZU CORPORATION SALD1100 (medium:diisopropyl ether)

[2] = Bulk density and tap density of crystals; type: physicochemical

Structure (SMILES)	average particle size [1] [μm]	crystal particle size distribution: not less than 10 μm and less than 20 μm [1]	crystal particle size distribution: not less than 20 μm and less than 40 μm [1]	crystal particle size distribution: less than 5 μm [1]	crystal particle size distribution: not less than 40 μm [1]	fine crystals having a particle size of less than 5 μm (of the total amount) ([1]; crystallized according to the method of U.S. Pat. No. 4,650,884) [%]	bulk density [2] [g/mL]	tap density [2] [g/mL]
CN(C)CCCC1(c2ccc(F)cc2)OCc2cc(C#N)ccc21 (single isomer, unassigned) [Example 1, citalopram hydrobromide]	12.9	29.1%	27.0%	17.1%	4.6%	–	–	–
CN(C)CCCC1(c2ccc(F)cc2)OCc2cc(C#N)ccc21 (centres unmarked) [Example 5, citalopram hydrobromide]	15.1	10 μm ≦ D < 20 μm 26.9%	20 μm ≦ D < 40 μm 31.0%	D < 5 μm 15.6%	D ≧ 40 μm 7.2% (shown	–	–	–
CN(C)CCCC1(c2ccc(F)cc2)OCc2cc(C#N)ccc21 (centres unmarked) [Example 2, citalopram hydrobromide]	7.8	25.7%	12.2%	D < 5 μm 31.4%	D ≧ 40 μm 0.3%	–	–	–
CN(C)CCCC1(c2ccc(F)cc2)OCc2cc(C#N)ccc21 (centres unmarked) [Example 3, citalopram hydrobromide]	11.0	31.0%	21.6%	D < 5 μm 19.6%	D ≧ 40 μm 1.6%	–	–	–
CN(C)CCCC1(c2ccc(F)cc2)OCc2cc(C#N)ccc21 (centres unmarked) [Comparative Example 1, citalopram hydrobromide, reference compound]	6.3	23.9%	4.0%	41.9%	0%	–	–	–

Further lines, results first:

average particle size [1] [μm]	crystal particle size distribution: not less than 10 μm and less than 20 μm [1]	crystal particle size distribution: not less than 20 μm and less than 40 μm [1]	crystal particle size distribution: less than 5 μm [1]	crystal particle size distribution: not less than 40 μm [1]	fine crystals having a particle size of less than 5 μm (of the total amount) ([1]; crystallized according to the method of U.S. Pat. No. 4,650,884) [%]	bulk density [2] [g/mL]	tap density [2] [g/mL]	Structure (SMILES)
–	–	–	–	–	41.9	–	–	CN(C)CCCC1(c2ccc(F)cc2)OCc2cc(C#N)ccc21 (centres unmarked) [citalopram hydrobromide, reference compound]
14.6	35.5%	29.3%	12.6%	2.4%	–	0.2	0.42	CN(C)CCCC1(c2ccc(F)cc2)OCc2cc(C#N)ccc21 (single isomer, unassigned) [Example 6, citalopram hydrobromide]
23.8	20.9%	31.7%	9.6%	25.5%	–	–	–	CN(C)CCCC1(c2ccc(F)cc2)OCc2cc(C#N)ccc21 (single isomer, unassigned) [Example 4, citalopram hydrobromide]
